One assay addresses T1, JAK3 (Homo sapiens, UniProt P52333).
T1 construct: 5 μl of catalytic domain recombinant Kinase enzyme+Tyr peptide substrate (Invitrogen, CA); purchased Invitrogen
As to the kind of experiment: Z'-LYTE kinase assay JAK3. The class given is biochemical. The method in brief:
(§1)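 Z′-LYTE FRET, Tyr6 peptide, recombinant catalytic domain + ATP, 1 h RT, 1% DMSO final, duplicates; protease development 1 h RT; fluorescence read.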

The target in the next assay is T2, TYK2 (Homo sapiens, UniProt P29597).
T2 construct: 5 μl of catalytic domain recombinant Kinase enzyme+Tyr peptide substrate (Invitrogen, CA); purchased Invitrogen
T2 sequence (P29597 897-1176 limits assumed): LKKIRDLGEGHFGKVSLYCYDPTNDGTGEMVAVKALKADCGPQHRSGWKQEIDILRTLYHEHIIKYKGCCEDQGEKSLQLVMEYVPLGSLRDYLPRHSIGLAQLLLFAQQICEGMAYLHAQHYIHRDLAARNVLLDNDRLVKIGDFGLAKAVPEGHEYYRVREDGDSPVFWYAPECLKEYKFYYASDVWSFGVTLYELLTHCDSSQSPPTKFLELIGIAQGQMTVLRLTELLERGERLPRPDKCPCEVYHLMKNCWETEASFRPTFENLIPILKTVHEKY
In words: Z'-LYTE kinase assay TYK2. The format is biochemical. The method in brief:
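IC50 derived by 4-parameter logistic fit of percent substrate phosphorylation relative to uninhibited wells. Tyr6 peptide phosphorylated by recombinant TYK2 catalytic domain for 1 h at room temperature (1% DMSO), cleaved by development protease 1 h, FRET emission ratio 445/520 nm.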

The next assay deals with T3, JAK1 (Homo sapiens, UniProt P23458).
T3 construct: 5 μl of catalytic domain recombinant Kinase enzyme+Tyr peptide substrate (Invitrogen, CA); purchased Invitrogen
In words: Z'-LYTE kinase assay JAK1. The class given is biochemical. The method in brief: as §1

For assay [1], the system named is JAK1/3 signaling to STAT6 in Ramos B cells. In words: IL4 stimulation of JAK1/3 signaling to STAT6 in Ramos B cells (pSTAT6 Y641, FACS). The format is cell-based. The settings on record: Homo sapiens; for inhibition at 0.2 µM: 0.2 uM compound, read-out: IL-4/STAT6 in Ramos Percent Inhibition at 0.2 uM; for inhibition at 1 µM: 1.0 uM compound, read-out: IL-4/STAT6 in Ramos Percent Inhibition at 1.0 uM. The method in brief:
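Phospho-STAT6 Y641 was measured by FACS using a PE-labelled antibody after fixation (2% paraformaldehyde) and methanol permeabilization. Before this, Ramos cells were exposed to compound for 1 h, then to 15 ng IL4 for 15 min.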

The values that follow come from patent publication US20150353495A1 (PORTOLA PHARMACEUTICALS, INC., priority 2010, published 2015).

What is called IC50 is the point on the concentration scale where inhibition reaches its midpoint. A higher IC50 goes with weaker potency.

T1 sequence (P52333 822-1111 limits assumed): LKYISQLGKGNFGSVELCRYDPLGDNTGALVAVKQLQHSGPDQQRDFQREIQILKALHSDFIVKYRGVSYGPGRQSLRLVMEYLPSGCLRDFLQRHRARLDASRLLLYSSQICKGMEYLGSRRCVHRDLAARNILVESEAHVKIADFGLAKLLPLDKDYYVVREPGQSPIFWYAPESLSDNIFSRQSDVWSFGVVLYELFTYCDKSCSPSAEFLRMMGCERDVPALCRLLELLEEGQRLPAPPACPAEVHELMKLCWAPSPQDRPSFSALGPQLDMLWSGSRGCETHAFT
T3 sequence (P23458 875-1153 limits assumed): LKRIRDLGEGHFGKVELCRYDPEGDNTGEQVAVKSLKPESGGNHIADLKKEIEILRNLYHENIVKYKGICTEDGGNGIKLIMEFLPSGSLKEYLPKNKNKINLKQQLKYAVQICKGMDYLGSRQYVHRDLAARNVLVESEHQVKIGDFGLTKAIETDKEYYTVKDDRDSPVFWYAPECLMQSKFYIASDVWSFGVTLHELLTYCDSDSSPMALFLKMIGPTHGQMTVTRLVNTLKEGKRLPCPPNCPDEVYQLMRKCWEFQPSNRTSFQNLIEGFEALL

For `CC(=O)N1CCN(c2ccc(Nc3cc(NC4CC4)c(C(N)=O)cn3)cc2)CC1` [Example 2], the values for the 50% inhibitory concentration (IC50) at JAK3, on TYK2 and against JAK1 were 10 to 100 nM, 100 to 1000 nM and 100 to 1000 nM, respectively. For the same compound, the inhibition at 0.2 µM in assay [1] stood at 29%. Further, the inhibition at 1 µM in assay [1] was 77%.

In the case of `CC(=O)N1CCN(c2ccc(Nc3cc(NCc4cccc(F)c4)c(C(N)=O)cn3)cc2)CC1` [Example 229], the IC50 is 1 to 10 nM on JAK3, 100 to 1000 nM against TYK2 and 100 to 1000 nM against JAK1. The inhibition at 0.2 µM in assay [1] stood at 38%. Further, in assay [1], the inhibition at 1 µM worked out at 67%.
